Source: patent publication US20100298252A1, “METHODS AND COMPOSITIONS FOR OPHTHALMIC TREATMENT OF FUNGAL AND BACTERIAL INFECTIONS” (priority 2004, published 2010)
Converted amounts (≈) assume the structure as drawn. Read-outs that look alike come from different tables or passages of the source.

Assays:
[1] = system: Penicillium sp.; assay: Antifungal MIC 50 / MIC 90 alone and combined with Tricide; format: cell-based; conditions: for % decrease MIC 50 / % decrease MIC 90 / MIC 50 combined with Tricide / MIC 90 combined with Tricide: Tricide 200 ug/ml; for MIC50 / MIC90: antifungal alone
[2] = system: Paecilomyces variotti ATCC 36257; assay: as above; format: cell-based; conditions: for MIC50 / MIC90: ATCC36257
[3] = system: Curvularia sp.; assay: as above; format: cell-based; conditions: for % decrease MIC 50 / % decrease MIC 90 / MIC 50 combined with Tricide / MIC 90 combined with Tricide: Curvilaria sp., Tricide 200 ug/ml; for Summary % reduction in MIC 50 using Tricide / Summary % reduction in MIC 90 using Tricide / MIC50 / MIC90: Curvularia sp.; for MIC50 / MIC90: antifungal alone;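 as to all read-outs here: antifungal MIC 50 and MIC 90 values against fungal isolates, with percent figures expressing how much the MIC fell once Tricide was added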
[4] = system: Cladosporium sp.; assay: as above; format: cell-based; conditions: for MIC50 / MIC90: antifungal alone
[5] = system: Fusarium sp. 3; assay: microbe, parasite or virus in culture; format: cell-based; conditions: for % decrease MIC 50 / % decrease MIC 90 / MIC 50 combined with Tricide / MIC 90 combined with Tricide: Tricide 540 ug/ml; for MIC50 / MIC90: antifungal alone
[6] = system: Candidia albicans ATCC 90028; assay: Antifungal MIC 50 / MIC 90 alone and combined with Tricide; format: cell-based, Candida albicans; conditions: for MIC50 / MIC90 / % decrease MIC 50 / % decrease MIC 90 / MIC 50 combined with Tricide: Candida albicans; for MIC50 / MIC90: ATCC90028, antifungal alone; for MIC50 / MIC90 / Summary % reduction in MIC 50 using Tricide / Summary % reduction in MIC 90 using Tricide: Candidia albicans ATCC 90028; for % decrease MIC 50 / % decrease MIC 90 / MIC 50 combined with Tricide: Tricide […];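 as to all read-outs here: MIC 50 and MIC 90 values are means, and the percent decrease is the drop in MIC when the antifungal is combined with Tricide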
[7] = system: Aspergillus sp.; assay: as above; format: cell-based; conditions: for % decrease MIC 50 / % decrease MIC 90 / MIC 50 combined with Tricide / MIC 90 combined with Tricide: Aspergillus sp., Tricide 200 ug/ml; for MIC50 / MIC90: Aspergillus, antifungal alone; for MIC50 / MIC90 / Summary % reduction in MIC 50 using Tricide / Summary % reduction in MIC 90 using Tricide: Aspergiullus sp.
[8] = system: Fusarium sp. 2; assay: microbe, parasite or virus in culture; format: cell-based; conditions: for MIC50 / MIC90: antifungal alone
[9] = system: Fusarium sp. 1; assay: microbe, parasite or virus in culture; format: cell-based; conditions: for Summary % reduction in MIC 50 using Tricide / Summary % reduction in MIC 90 using Tricide: Fasarium sp. 1; for % decrease MIC 50 / % decrease MIC 90 / MIC 90 combined with Tricide / MIC50 / MIC90: Fusarium sp. 1; for % decrease MIC 50 / % decrease MIC 90 / MIC 90 combined with Tricide: Tricide 540 ug/ml; for MIC50 / MIC90: antifungal alone;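 as to all read-outs here: mean MIC 50 and MIC 90 values against fungal isolates, with percent decrease in MIC when the antifungal is combined with Tricide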
[10] = system: Staphylococcus aureus; assay: Antibiotic resistance profile by disc diffusion; format: cell-based; set-up: key: R = resistant; I = intermediate; S = sensitive; conditions: disc diffusion on MHA
Description: (§1) The organisms of this study were isolated from human burn patients. They included strains of methicillin resistant Staphylococcus aureus, and vancomycin resistant strains of Pseudomonas aeruginosa and Enterococcus faecalis. The bacterial isolates were propagated in or on Brain Heart Infusion broth (BHI), Mueller-Hinton Broth (MHB), blood agar (BA), Mueller-Hinton agar (MHA), enterococcus agar (EA), or 2× nutrient agar (2×NA).
(§2) Antibiotic resistance profiles were determined by the disc diffusion method on MHA (5).

[11] = system: Enterococcus faecalis; assay: Antibiotic resistance profile by disc diffusion; format: cell-based; set-up: key: R = resistant; I = intermediate; S = sensitive; conditions: disc diffusion on MHA
Description: as §1, §2

[12] = system: Pseudomonas aeruginosa; assay: Antibiotic resistance profile by disc diffusion; format: cell-based; set-up: key: R = resistant; I = intermediate; S = sensitive; conditions: disc diffusion on MHA
Description: as §1, §2

[13] = Paecilomyces variotti ATCC36257
[14] = Paecilomyces variotti, Tricide […]

Molecule: CC(=O)N1CCN(c2ccc(OCC3COC(Cn4ccnc4)(c4ccc(Cl)cc4Cl)O3)cc2)CC1 (centres unmarked) [Ketoconazole, ketoconazole]
- Summary % reduction in MIC 50 using Tricide [1]: 100%
- Summary % reduction in MIC 90 using Tricide [1]: 100%
- % decrease MIC 50 [1]: 100%
- % decrease MIC 90 [1]: 100%
- MIC 50 combined with Tricide [1]: 0 mg/L
- MIC 90 combined with Tricide [1]: 0 mg/L
- MIC50 [1]: 0.181 mg/L
- MIC90 [1]: 0.5 mg/L
- Summary % reduction in MIC 50 using Tricide [2, 13]: 100%
- Summary % reduction in MIC 90 using Tricide [2, 13]: 75%
- % decrease MIC 50 [2, 14]: 100%
- % decrease MIC 90 [2, 14]: 75%
- MIC 50 combined with Tricide [2, 14]: 0 mg/L
- MIC 90 combined with Tricide [2, 14]: 0.25 mg/L
- MIC50 ([2]; Paecilomyces): 0.0382 mg/L
- MIC90 ([2]; Paecilomyces): 1 mg/L
- % decrease MIC 50 [3]: 96.3-100%^
- % decrease MIC 90 [3]: 74-100% ^
- MIC 50 combined with Tricide [3]: 0 to 0.0250 mg/L
- MIC 90 combined with Tricide [3]: 0 to 0.4 mg/L
- Summary % reduction in MIC 50 using Tricide [3]: 96.3%-100%
- Summary % reduction in MIC 90 using Tricide [3]: 74%-100%
- MIC50 [3]: 0.667 mg/L
- MIC90 [3]: 1.56 mg/L
- Summary % reduction in MIC 50 using Tricide [4]: 75%
- Summary % reduction in MIC 90 using Tricide [4]: 94%
- % decrease MIC 50 ([4]; Tricide 200 ug/ml): >75%
- % decrease MIC 90 ([4]; Tricide 200 ug/ml): 94%
- MIC 90 combined with Tricide ([4]; Tricide 200 ug/ml): 0.125 mg/L
- MIC50 [4]: 0.5 mg/L
- MIC90 [4]: 2 mg/L
- Summary % reduction in MIC 50 using Tricide [5]: 100%
- Summary % reduction in MIC 90 using Tricide [5]: 100%
- % decrease MIC 50 [5]: 100%
- % decrease MIC 90 [5]: 100%
- MIC 50 combined with Tricide [5]: 0 mg/L
- MIC 90 combined with Tricide [5]: 0 mg/L
- MIC50 [5]: > 128 mg/L
- MIC90 [5]: > 128 mg/L
- MIC50 [6]: 0.0313 mg/L
- MIC90 [6]: > 1 mg/L
- % decrease MIC 50 [6]: 100%
- % decrease MIC 90 [6]: 100%
- MIC 50 combined with Tricide [6]: 0 mg/L
- Summary % reduction in MIC 50 using Tricide [6]: 100%
- Summary % reduction in MIC 90 using Tricide [6]: 100%
- % decrease MIC 50 [7]: 87.5%
- % decrease MIC 90 [7]: 95.8%
- MIC 50 combined with Tricide [7]: 0.25 mg/L
- MIC 90 combined with Tricide [7]: 0.5 mg/L
- MIC50 [7]: 2 mg/L
- MIC90 [7]: 12 mg/L
- Summary % reduction in MIC 50 using Tricide [7]: 87.5%
- Summary % reduction in MIC 90 using Tricide [7]: 95.8%
- Summary % reduction in MIC 50 using Tricide [8]: >99.5%-100%
- Summary % reduction in MIC 90 using Tricide [8]: 99.9%-100%
- % decrease MIC 50 ([8]; Tricide 540 ug/ml): >99.5-100% ^
- % decrease MIC 90 ([8]; Tricide 540 ug/ml): >99.9-100% ^
- MIC50 [8]: 11.2 mg/L (≈ 21.1 µM)
- MIC90 [8]: 64 mg/L (≈ 120 µM)
- Summary % reduction in MIC 50 using Tricide [9]: >99.9%-100%
- Summary % reduction in MIC 90 using Tricide [9]: 99.9%-100%
- % decrease MIC 50 [9]: >99.9-100% ^
- % decrease MIC 90 [9]: 99.9-100%^
- MIC 90 combined with Tricide [9]: 0 to 0.05 mg/L
- MIC50 [9]: > 128 mg/L
- MIC90 [9]: > 128 mg/L

Molecule: gentamicin [Gm]
- Antibiotic resistance profile [10]: S
- Antibiotic resistance profile [11]: R
- Antibiotic resistance profile [12]: I

Molecule: Clc1ccc(COC(Cn2ccnc2)c2ccc(Cl)cc2Cl)c(Cl)c1 (centres unmarked) [Miconazole, miconazole]
- Summary % reduction in MIC 50 using Tricide [1]: 100%
- Summary % reduction in MIC 90 using Tricide [1]: 100%
- % decrease MIC 50 [1]: 100%
- % decrease MIC 90 [1]: 100%
- MIC 50 combined with Tricide [1]: 0 mg/L
- MIC 90 combined with Tricide [1]: 0 mg/L
- MIC50 [1]: 0.181 mg/L
- MIC90 [1]: 0.361 mg/L
- MIC50 ([2]; Paecilomyces variotti ATCC 36257, antifungal alone, read-out: MIC 50): 0.0764 mg/L
- MIC90 ([2]; Paecilomyces variotti ATCC 36257, antifungal alone, read-out: MIC 90): > 1 mg/L
- Summary % reduction in MIC 50 using Tricide [2, 13]: 97.4%
- % decrease MIC 50 [2, 14]: 97.4%
- MIC 50 combined with Tricide [2, 14]: 0.002 mg/L
- MIC 90 combined with Tricide [2, 14]: >1 mg/L
- % decrease MIC 50 [3]: 99-100% ^
- % decrease MIC 90 [3]: 90-100% ^
- MIC 50 combined with Tricide [3]: 0 to 0.0250 mg/L
- MIC 90 combined with Tricide [3]: 0 to 0.4 mg/L
- Summary % reduction in MIC 50 using Tricide [3]: 99-100% ^
- Summary % reduction in MIC 90 using Tricide [3]: 90-100% ^
- MIC50 [3]: 3.11 mg/L
- MIC90 [3]: 4 mg/L
- Summary % reduction in MIC 50 using Tricide [4]: 97%
- Summary % reduction in MIC 90 using Tricide [4]: 98%
- % decrease MIC 50 ([4]; Tricide 200 ug/ml): >97%
- % decrease MIC 90 ([4]; Tricide 200 ug/ml): 98%
- MIC 50 combined with Tricide ([4]; Tricide 200 ug/ml): <0.125 mg/L
- MIC 90 combined with Tricide ([4]; Tricide 200 ug/ml): 0.25 mg/L
- MIC50 [4]: 4 mg/L
- MIC90 [4]: 16 mg/L
- Summary % reduction in MIC 50 using Tricide [5]: 100%
- Summary % reduction in MIC 90 using Tricide [5]: 100%
- % decrease MIC 50 [5]: 100%
- % decrease MIC 90 [5]: 100%
- MIC 50 combined with Tricide [5]: 0 mg/L
- MIC 90 combined with Tricide [5]: 0 mg/L
- MIC50 [5]: > 128 mg/L
- MIC90 [5]: > 128 mg/L
- MIC50 [6]: 0.5 mg/L
- MIC90 [6]: > 1 mg/L
- % decrease MIC 50 [6]: 100%
- % decrease MIC 90 [6]: 100%
- MIC 50 combined with Tricide [6]: 0 mg/L
- Summary % reduction in MIC 50 using Tricide [6]: 100%
- Summary % reduction in MIC 90 using Tricide [6]: 100%
- % decrease MIC 50 [7]: 96%
- % decrease MIC 90 [7]: 84%
- MIC 50 combined with Tricide [7]: 0.1250 mg/L
- MIC 90 combined with Tricide [7]: 2 mg/L
- MIC50 [7]: 3.11 mg/L
- MIC90 [7]: 12.4 mg/L
- Summary % reduction in MIC 50 using Tricide [7]: 96%
- Summary % reduction in MIC 90 using Tricide [7]: 84%
- Summary % reduction in MIC 50 using Tricide [8]: >99.9%-100%
- Summary % reduction in MIC 90 using Tricide [8]: 99.9%-100%
- % decrease MIC 50 ([8]; Tricide 540 ug/ml): >99.9-100% ^
- % decrease MIC 90 ([8]; Tricide 540 ug/ml): 99.9-100%^
- MIC 90 combined with Tricide ([8]; Tricide 540 ug/ml): 0.05 mg/L
- MIC50 [8]: > 128 mg/L
- MIC90 [8]: > 128 mg/L
- Summary % reduction in MIC 50 using Tricide [9]: >99.8%-100%
- Summary % reduction in MIC 90 using Tricide [9]: 99.8%-100%
- % decrease MIC 50 [9]: >99.8-100% ^
- % decrease MIC 90 [9]: 99.8-100%^
- MIC 90 combined with Tricide [9]: 0 to 0.05 mg/L
- MIC50 [9]: > 128 mg/L
- MIC90 [9]: > 128 mg/L
